Experimental data taken from US20240252668A1, “ANTIBODY DRUG CONJUGATES AND METHODS FOR MAKING THEREOF” (Novartis AG, priority 2021, published 2024).
Like-named read-outs stand apart in the source and are kept apart here. Starred links: 1 amine or outer side, 2 acyl side, 3 side chain; linkers in the order of their positions; H or OH if unused. Positions of bridges follow the written chain, without caps; N, C: chain ends. Non-standard residues stand in square brackets, D forms with d. Residues, ends and D or L forms follow the SMILES beside them. *: point of attachment. Leu(3R-OH,Nα-propionyl) = CCC(=O)N[C@H](C(=O)*)[C@H](O)C(C)C; X1 = CC(C)[C@@H](O[*:3])[C@H](N[*:1])C(=O)[*:2]; X5 = CSC[C@@H](O[*:3])[C@H](N[*:1])C(=O)[*:2]; X4 = CCC(=O)N[C@H](C(=O)*)[C@H](O)CSC; NMeT = CN[C@H](C(=O)O)[C@@H](C)O; dPhLac = O=C(O)[C@H](O)Cc1ccccc1; NMeA = CN[C@@H](C)C(=O)O; NMeDha = C=C(NC)C(=O)O; Propionyl = CCC(=O)*

Experiments:
[1] = tested on: MP41 uveal melanoma cell line (heterozygous GNA11 Q209L); experiment: Cell proliferation assay (resazurin cell viability), MP41 cell line; assay type: cell-based
Excerpt: (§1) Cell Proliferation Assays with Chromodepsins (compounds (A1) and 2-15): Cell line descriptions: 92.1—uveal melanoma cell line, derived from primary tumor, harboring heterozygous GNAQ Q209L mutation. Purchased from Sigma Aldrich. MP41 (CRL-3297) -uveal melanoma cell line, derived from primary tumor, harboring heterozygous GNA11 Q209L mutation. Purchased from ATCC. A375—skin melanoma cell line, harboring homozygous BRAF V600E mutation. Origin: Cancer Cell Line Encyclopedia (CCLE). SK-MEL-30—skin melanoma cell line, harboring heterozygous NRAS Q61K mutation. Origin: CCLE.
(§2) Cells were cultured in 96-well plates in a total volume of 100 μL at 37° C., 5% CO2 and 95% relative humidity. All cell lines were cultured in RPMI Medium (RPMI 1640 w/o L-glutamine, Bioconcept ref. 1-41F01-I) except A375, DMEM medium (DMEM high glucose (4.5 g/L), Bioconcept, ref. 1-26F01-I), and supplemented with 10% FCS (Bioconcept, ref. 2-01F30-I). Two to three thousand cells were seeded in 96-well plates per well the night before they were treated with compounds (concentration range: from 260 nM to 0.036 nM with ⅓ dilution steps; for 7 the concentration range was increased from 10000 nM to 1.52 nM with ⅓ dilution steps). Cell viability was measured by addition of 10 ul of resazurin per well after 96 hours of treatment. Results were analyzed and plotted using GraphPad Prism 9.0.1.

[2] = EPSA determination by supercritical fluid chromatography; assay type: physicochemical; details: modified EPSA method, SFC
Description: […] by supercritical fluid chromatography: Compounds (A1) and 2-15 were tested by supercritical fluid chromatography (SFC) to determine their ESAPSA values. Samples were analyzed using a Chirex 3014 column ([…], 3×100 mm column, 100 Å pore size; Phenomenex. The starting conditions were 5% methanol containing 20 mM ammonium formate and 95% scCO2. The gradient was increased linearly to 60% methanol containing 20 mM ammonium formate in 4.5 min.

[3] = tested on: A375 skin melanoma cell line (homozygous BRAF V600E); experiment: Cell proliferation assay (resazurin cell viability), A375 cell line; assay type: cell-based
Excerpt: as §1, §2

MDCK-LE monolayers = experiment: Cell-based transwell assay with MDCK-low efflux monolayers (passive permeability); assay type: in vitro ADME; details: MDCK-LE monolayers
Description: Cell-based transwell assays with MDCK-low efflux monolayers: Compounds (A1) and 2-15 were tested in MDCK cell sub-clones with low effluxt ransporter activity (MDCK-LE) in order to determine their passive permeability. The incubations were performed at a contract research organization as described previously.

[4] = tested on: 92.1 uveal melanoma cell line (heterozygous GNAQ Q209L); experiment: Cell proliferation assay (resazurin cell viability), 92.1 cell line; assay type: cell-based
Excerpt: as §1, §2

[5] = tested on: SK-MEL-30 skin melanoma cell line (heterozygous NRAS Q61K); experiment: Cell proliferation assay (resazurin cell viability), SK-MEL-30 cell line; assay type: cell-based
Excerpt: as §1, §2

[6] = tested on: 92.1 and MP41 cell lines (GNAQ/GNA11 mutant uveal melanoma); experiment: Cell proliferation assays, potency ranking over both uveal melanoma lines; assay type: cell-based; details: 92.1 and MP41 cell lines
Excerpt: The selective antiproliferative profile of the chromodepsins against GNAQ/GNA11 mutant cell lines is confirmed by the lack of activity against the A375 and SK MEL 30 cell lines that are independent from GNAQ/GNA11 signaling. The potency ranking using the 92.1 and MP41 cell lines is in good agreement with the previously SAR studies. […] These findings are in line with a recent report from Voss et al., highlighting the importance of the “lipophilic anchors” of compound (A1) at the residues varied in compounds 2 and 3, in context of binding kinetics and prolonged residence time on the target proteins. The retained potency of compound 4 indicates a promising exit vector for potential synthetic or biosynthetic modifications of the scaffold. […] The linearized depsipeptides compounds 5-7 lack any antiproliferative activity. In this experimental setup, the cellular permeability of the compounds was a crucial factor contributing to the observed antiproliferative potency. Therefore, all compounds were characterized in a low efflux MCDK assay and determined their exposed polar surface areas (EPSA) in order to assess their passive cellular permeabilities. All macrocyclic chromodepsins that feature the N acyl Hle side chain show similar results concerning their % fraction absorbed (% FA; average ˜60% FA+20%) and EPSA values.
as §1, §2

[7] = MP41 (GNA11 Q209L), 96 hours of treatment, read-out: GI50 by cell line, MP41
[8] = MP41 cell line, average of Rep. 1 and 2, read-out: GI50 MP41 Average
[9] = MP41 cell line, replicate 1, read-out: GI50 MP41 Rep. 1
[10] = MP41 cell line, replicate 2, read-out: GI50 MP41 Rep. 2
[11] = A375 (GNAQ/11 wild type), 96 hours of treatment, read-out: GI50 by cell line, A375
[12] = A375 cell line, average of Rep. 1 and 2, read-out: GI50 A375 Average
[13] = A375 cell line, replicate 1, read-out: GI50 A375 Rep. 1
[14] = A375 cell line, replicate 2, read-out: GI50 A375 Rep. 2
[15] = 92.1 (GNAQ Q209L), 96 hours of treatment, read-out: GI50 by cell line, 92.1
[16] = 92.1 cell line, average of Rep. 1 and 2, read-out: GI50 92.1 Average
[17] = 92.1 cell line, replicate 1, read-out: GI50 92.1 Rep. 1
[18] = 92.1 cell line, replicate 2, read-out: GI50 92.1 Rep. 2
[19] = SK-MEL-30 (GNAQ/11 wild type), 96 hours of treatment, read-out: GI50 by cell line, SK-MEL-30
[20] = SK-MEL-30 cell line, average of Rep. 1 and 2, read-out: GI50 SK-MEL-30 Average
[21] = SK-MEL-30 cell line, replicate 1, read-out: GI50 SK-MEL-30 Rep. 1
[22] = SK-MEL-30 cell line, replicate 2, read-out: GI50 SK-MEL-30 Rep. 2

SMILES	GI50 [1, 7]	GI50 [1, 8]	GI50 [1, 9]	GI50 [1, 10]	GI50 [3, 11]	GI50 [3, 12]	GI50 [3, 13]	GI50 [3, 14]	% Fraction absorbed (MDCK-LE monolayers)	% Recovery (MDCK-LE monolayers)	Papp A − B (MDCK-LE monolayers)	GI50 [4, 15]	GI50 [4, 16]	GI50 [4, 17]	GI50 [4, 18]	GI50 [5, 19]	GI50 [5, 20]	GI50 [5, 21]	GI50 [5, 22]	loss of potency compared to compound (A1) (growth inhibition) [6]	further results
C=C1C(=O)N[C@@H](C)C(=O)N(C)[C@@H](C)C(=O)N[C@@H]([C@H](OC(=O)[C@@H](NC(=O)CC)[C@H](O)C(C)C)C(C)C)C(=O)N(C)[C@@H]([C@@H](C)OC)C(=O)O[C@H](CSC)[C@H](NC(C)=O)C(=O)O[C@H](Cc2ccccc2)C(=O)N1C [Compound 2] (Ac-[X5][dPhLac][NMeDha]A[NMeA][X1](Leu(3R-OH,Nα-propionyl))[NMeT](Me); ester 1-C)	3.7 nM	3.7 nM	3.17 nM	4.3 nM	> 260 nM	> 260 nM	> 260 nM	> 260 nM	72.6%	72%	6.35 ×10⁻⁶ cm/s	9.8 nM	9.8 nM	8 nM	11.6 nM	> 260 nM	> 260 nM	> 260 nM	> 260 nM	~15 fold	EPSA [2]: 104 A^2
C=C1C(=O)N[C@@H](C)C(=O)N(C)[C@@H](C)C(=O)N[C@@H]([C@@H](CSC)OC(=O)[C@@H](NC(=O)CC)[C@H](O)C(C)C)C(=O)N(C)[C@@H]([C@@H](C)OC)C(=O)O[C@H](C(C)C)[C@H](NC(C)=O)C(=O)O[C@H](Cc2ccccc2)C(=O)N1C [Compound 3] (Ac-[X1][dPhLac][NMeDha]A[NMeA][X5](Leu(3R-OH,Nα-propionyl))[NMeT](Me); ester 1-C)	4 nM	4 nM	3.12 nM	4.89 nM	> 260 nM	> 260 nM	> 260 nM	> 260 nM	86.1%	90%	12.2 ×10⁻⁶ cm/s	10.4 nM	10.4 nM	9.05 nM	11.7 nM	> 260 nM	> 260 nM	> 260 nM	> 260 nM	~15 fold	EPSA [2]: 98 A^2
C=C1C(=O)N[C@@H](C)C(=O)N(C)[C@@H](C)C(=O)N[C@@H]([C@H](OC(=O)[C@@H](NC(=O)CC)[C@H](O)CSC)C(C)C)C(=O)N(C)[C@@H]([C@@H](C)OC)C(=O)O[C@H](C(C)C)[C@H](NC(C)=O)C(=O)O[C@H](Cc2ccccc2)C(=O)N1C [Compound 4] (Ac-[X1][dPhLac][NMeDha]A[NMeA][X1](X4)[NMeT](Me); ester 1-C)	0.5 nM	0.5 nM	0.45 nM	0.53 nM	> 260 nM	> 260 nM	> 260 nM	> 260 nM	32.5%	75%	1.71 ×10⁻⁶ cm/s	1.2 nM	1.2 nM	0.91 nM	1.5 nM	> 260 nM	> 260 nM	> 260 nM	> 260 nM	two-fold	EPSA [2]: 104 A^2
C=C1C(=O)N[C@@H](C)C(=O)N(C)[C@@H](C)C(=O)N[C@@H]([C@H](OC(=O)[C@@H](NC(=O)CC)[C@H](O)C(C)C)C(C)C)C(=O)N(C)[C@@H]([C@@H](C)OC)C(=O)O[C@H](C(C)C)[C@H](NC(=O)CC)C(=O)O[C@H](Cc2ccccc2)C(=O)N1C [Compound 9] (Propionyl-[X1][dPhLac][NMeDha]A[NMeA][X1](Leu(3R-OH,Nα-propionyl))[NMeT](Me); ester 1-C)	0.7 nM	0.7 nM	0.6 nM	0.78 nM	> 260 nM	> 260 nM	> 260 nM	> 260 nM	–	–	–	1.4 nM	1.4 nM	1.2 nM	1.69 nM	> 260 nM	> 260 nM	> 260 nM	> 260 nM	two to three	–
CCC(=O)N[C@H](C(=O)O[C@H](C(C)C)[C@@H]1NC(=O)[C@H](C)N(C)C(=O)[C@H](C)NC(=O)[C@H](C)N(C)C(=O)[C@@H](Cc2ccccc2)OC(=O)[C@@H](NC(C)=O)[C@@H](C(C)C)OC(=O)[C@H]([C@@H](C)OC)N(C)C1=O)[C@H](O)C(C)C [Compound 10] (Ac-[X1][dPhLac][NMeA]A[NMeA][X1](Leu(3R-OH,Nα-propionyl))[NMeT](Me); ester 1-C)	396 nM	396 nM	419 nM	372 nM	> 10000 nM	> 10000 nM	> 10000 nM	> 10000 nM	37.6%	77%	2.03 ×10⁻⁶ cm/s	607 nM	607 nM	760 nM	453 nM	> 10000 nM	> 10000 nM	> 10000 nM	> 10000 nM	25-30 fold	–
